This is an account of results in US20060014825A1, “Novel k99-5278 substance and a process for producing the same” (priority 2002, published 2006).

Structures are written as SMILES. Values after ≈ are worked out from the molar mass of the structure shown.

Series [1] has as its system Saccharomyces cerevisiae KF26. Description: Antifungal activity by liquid culture method (turbidity at 550 nm). To be noted: Saccharomyces cerevisiae KF26, liquid medium, 27° C. for 24 hours; read-out: IC50 for growth of the test organism. Type of series: cell-based. Here is the method:
Antifungal activities of K99-5278A substance, K99-5278B substance and K99-5278C substance by the liquid medium were performed as follows. • 1) Saccharomyces cerevisiae KF26 was used as a test organism. Samples dissolved in DMSO were added in the 96 well microplate and the solvent was distilled off in vacuo. Suspension, in which Saccharomyces cerevisiae KF26 0.3% was inoculated in a medium (glucose 1.0% and yeast extract 0.5%, pH 6.0), 200 μl/well was added and incubated at 27° C. for 24 hours. After the incubation, turbidity was measured by using absorption spectrometer with wavelength at 550 nm. Activity was determined by setting the value without drug addition as 100%, and the concentration shown by 50% turbidity was set as IC50.

A further series relates to Mucor racemosus KF223. The series is described as above. It is filed as cell-based. To be noted: Mucor racemosus KF223, liquid medium, 27° C. for 24 hours; read-out: IC50 for growth of the test organism. Here is the method:
Samples dissolved in DMSO were added in the 96 well microplate and the solvent was distilled off in vacuo. Suspension, in which Mucor racemosus KF223 0.3% was inoculated in a medium (glucose 1.0% and yeast extract 0.5%, pH 6.0), 200 μl/well was added and incubated at 27° C. for 24 hours. After the incubation, turbidity was measured by using absorption spectrometer with wavelength at 550 nm. Activity was determined by setting the value without drug addition as 100%, and the concentration shown by 50% turbidity was set as IC50.

The subject of series [2] is Aspergillus niger KF103 (ATCC 6275). Description: Antifungal activity by paper disc method. It is filed as cell-based. To be noted: ATCC6275, 10 μg, GY agar medium, 27° C. for 24 hours. Here is the method: (§1) Biological properties of K99-5278 substance of the present invention are explained in detail hereinbelow. • (1) Assays of antifungal activities by paper disc method (filter paper disc method)
(§2) Antifungal activities of K99-5278 substance were performed using Aspergillus niger KF103 (ATCC 6275), Mucor racemosus KF223 (IFO 4581), Candida albicans KF1 and Saccharomyces cerevisiae KF26. Aspergillus niger KF103 (ATCC 6275) and Candida albicans KF1 were inoculated at 0.2%, and Mucor racemosus KF223 (IFO 4581) and Saccharomyces cerevisiae KF26 were inoculated at 0.3% in GY agar medium (glucose 1.0%, yeast extract 0.5%, agar 0.8%, pH 6.0). Activities were evaluated by paper disc method (thickness: 6 mm: Advantec Inc., Japan), and a diameter of the inhibition ring was measured after incubating at 27° C. for 24 hours.

A further series has as its system Candida albicans KF1. Briefly: Antifungal activity by paper disc method. It is filed as cell-based. The conditions noted are these: 10 μg, GY agar medium, 27° C. for 24 hours. Here is the method:
as §1, §2

For series [3], the system named is Mucor racemosus KF223 (IFO 4581). Briefly: Antifungal activity by paper disc method. To be noted: IFO4581, 10 μg, GY agar medium, 27° C. for 24 hours. Type of series: cell-based. Here is the method: as §1, §2
In series [4] the test system is Saccharomyces cerevisiae KF26. Description: Antifungal activity by paper disc method. Type of series: cell-based. To be noted: 10 μg, GY agar medium, 27° C. for 24 hours. Here is the method: as §1, §2
The test system of another series is Aspergillus niger KF103. Description: Antifungal activity by liquid culture method (turbidity at 550 nm). It is filed as cell-based. To be noted: Aspergillus niger KF103, liquid medium, 27° C. for 48 hours; read-out: IC50 for growth of the test organism. Here is the method:
Samples dissolved in DMSO were added in the 96 well microplate and the solvent was distilled off in vacuo. Suspension, in which Aspergillus niger KF103 0.3% was inoculated in a medium (glucose 1.0% and yeast extract 0.5%, pH 6.0), 200 μl/well was added and incubated at 27° C. for 48 hours. After the incubation, turbidity was measured by using absorption spectrometer with wavelength at 550 nm. Activity was determined by setting the value without drug addition as 100%, and the concentration shown by 50% turbidity was set as IC50.

A further series relates to Candida albicans KFI. Described as above. It is filed as cell-based. To be noted: liquid medium, 27° C. for 24 hours, read-out: IC50 for growth of the test organism. Here is the method:
Samples dissolved in DMSO were added in the 96 well microplate and the solvent was distilled off in vacuo. Suspension, in which Candida albicans KF1 0.3% was inoculated in a medium (glucose 1.0% and yeast extract 0.5%, pH 6.0), 200 μl/well was added and incubated at 27° C. for 24 hours. After the incubation, turbidity was measured by using absorption spectrometer with wavelength at 550 nm. Activity was determined by setting the value without drug addition as 100%, and the concentration shown by 50% turbidity was set as IC50.

As usually defined, the IC50 is the concentration needed to halve the response being measured. What is called zone of inhibition is the size of the clear area around the sample on an inoculated plate. Regarding `CC1/C=C/C=C/C=C/C=C/C=C/C(O)CC(O)CC(O)CC(O)CCCC(O)CC(O)C(C)C(=O)OC1C` (stereo not drawn) [K99-5278A substance], the IC50 was 7.2 µg/mL (≈ 13.4 µM) in series [1], 15 µg/mL (≈ 27.9 µM) in the series on Mucor racemosus KF223, 0.32 µg/mL (≈ 0.596 µM) with Aspergillus niger KF103 and 61 µg/mL (≈ 114 µM) in the series on Candida albicans KFI. Further, the Solubility in solvent result in “Solubility in solvent” (chloroform) is on record as “slightly soluble”; in the series “Solubility in solvent” (dimethyl sulfoxide (DMSO)) it was “soluble”; in the series “Solubility in solvent” (ethyl acetate) it was “slightly soluble”; in “Solubility in solvent” (hexane), “insoluble”; in the series “Solubility in solvent” (methanol), “soluble”; in “Solubility in solvent” (water), “insoluble”. Also, the zone of inhibition at 10 µg/disc in [2] was 18 mm; with Candida albicans KF1 it was 9 mm; in [3], 9 mm; in series [4], 12 mm.
In the case of `CC(C)C1OC(=O)C(C)C(O)CC(O)CCCC(O)CC(O)CC(O)C(C)C(O)/C=C/C=C/C=C/C=C/C=C/C1C` (stereo not drawn) [K99-5278C substance], the half-inhibitory concentration (IC50) in [1] was 16.6 µg/mL (≈ 28.7 µM); in the series with Mucor racemosus KF223, 35 µg/mL (≈ 60.5 µM); in the series on Aspergillus niger KF103 it was 0.75 µg/mL (≈ 1.3 µM); with Candida albicans KFI it was 140 µg/mL (≈ 242 µM). In addition, the Solubility in solvent entry in the series “Solubility in solvent” (chloroform) was “slightly soluble”; in “Solubility in solvent” (dimethyl sulfoxide (DMSO)) it was “soluble”; in “Solubility in solvent” (ethyl acetate) it was “slightly soluble”; in the series “Solubility in solvent” (hexane), “insoluble”; in “Solubility in solvent” (methanol), “soluble”; in “Solubility in solvent” (water), “insoluble”. Moreover, the zone of inhibition at 10 µg/disc in series [2] came out at 15 mm; with Candida albicans KF1, 8 mm; in series [3] it was 8 mm; in [4], 9 mm.
For the molecule `CCC1OC(=O)C(C)C(O)CC(O)CCCC(O)CC(O)CC(O)C(C)C(O)/C=C/C=C/C=C/C=C/C=C/C1C` (stereo not drawn) [K99-5278B substance], the half-inhibitory concentration (IC50) in series [1] turned out to be 11.8 µg/mL (≈ 20.9 µM); with Mucor racemosus KF223, 25 µg/mL (≈ 44.3 µM); in the series on Aspergillus niger KF103, 0.53 µg/mL (≈ 0.938 µM); in the series on Candida albicans KFI, 100 µg/mL (≈ 177 µM). Moreover, the Solubility in solvent result in the series “Solubility in solvent” (chloroform) is listed as “insoluble”; in the series “Solubility in solvent” (dimethyl sulfoxide (DMSO)), “soluble”; in “Solubility in solvent” (ethyl acetate), “insoluble”; in “Solubility in solvent” (hexane) it was “insoluble”; in “Solubility in solvent” (methanol), “soluble”; in the series “Solubility in solvent” (water), “insoluble”. The zone of inhibition at 10 µg/disc in [2] was 16 mm; in the series on Candida albicans KF1, 7 mm; in series [3], 9 mm; in [4], 12 mm.
